Measured values published in article PMC11851464, “Development of a Spectrophotometric Assay for the Cysteine Desulfurase from Staphylococcus aureus” (Antibiotics, 2025).

Tests used:
[1] = target: T1, cysteine desulfurase SufS (SaSufS) (Staphylococcus aureus, UniProt A0A0H2XHJ5); experiment: spectrophotometric […] nm assay after […] h incubation; UV-Vis of PLP adduct; format: biochemical
[2] = target: T1, cysteine desulfurase SufS (SaSufS); experiment: spectrophotometric […] nm assay after […] h incubation; Ala-NDA assay (IC50 […]); UV-Vis of PLP adduct; format: biochemical

| IC50 [1] [µM] | IC50 [2] [µM] | SMILES |
| --- | --- | --- |
| 2170 ± 920 | – | N[C@@H]1CON=C1O [DCS, D-cycloserine] |
| – | 62 ± 23 | N[C@H]1CONC1=O [LCS, L-cycloserine] |
